Columns and labels:
[1] = tested on: sows; assay: 900 mg caffeine oral paste, actively managed farm in Bieganow; type: in vivo, swine; details: for increase in feed consumption of sows: vs control
Method: The method of treatment according to the present invention was further tested at a well-managed farm in Bieganow, Poland. In this facility farrowings are attended by (veterinary) personnel and parturition is actively managed. As a result, stillbirth rates are extremely low (0.33 piglets per litter or 3% of the piglets).
At this farm, 89 sows comprising one farrowing group were available for the test. These sows were assigned to receive either a 900 mg of caffeine containing paste in accordance with the invention or no treatment, based on parity, body condition, and historical performance. The treatment composition was administered orally to selected sows when they were expected to farrow in the next 8 hours.

[2] = tested on: sows; assay: 400 mg caffeine oral paste to sows after birth of first piglet; duration of parturition; type: in vivo, swine; details: 400 mg oral paste; controls 159 minutes
Method: In a second experiment, 19 sows received 400 mg of caffeine comprised in a paste for oral ingestion, in accordance with the invention, after the birth of the first piglet while 19 sows served as untreated controls.
Practically, some untreated animals delivered their litter expediently and with few problems, but there were a substantial number of mothers for whom parturition became a lengthy process.

[3] = Transfer of caffeine from the mother to piglets (blood at birth) and colostrum; type: in vivo, swine; details: 900 mg oral paste to sow; same time-point
From the text: In order to assess whether caffeine was transferred from the mother to the piglets, blood samples were collected from several piglets at the time of birth and samples from colostrum were taken. […] The concentrations found were dependent on the time relative to dosing the treatment composition. For piglets at birth, they were roughly ¼^th the concentration in the mother at that time-point, and in milk they were roughly ⅙^th the concentration in the mother at that time-point. Values observed were in the range of 0.1 to 1.5 mg/L.

[4] = tested on: sows; assay: 900 mg caffeine oral paste, Velddriel research station; stillbirth and piglet mortality; type: in vivo, swine; details: 900 mg oral paste
Method: The method of treatment according to the present invention was further tested at the Provimi research station in Velddriel, the Netherlands, in three farrowing groups. In the Velddriel facility farrowings are not attended by (veterinary) personnel and parturition is thus not actively managed. Stillbirth and mortality rates are thus in line with commercial practices.
Sows were assigned to treatment based on parity. Overall, 27 sows served as controls and 29 were treated in accordance with the present invention when they were expected to farrow in the next 8 hours. Treated sows were administered 900 mg of caffeine comprised in a paste for oral ingestion, in accordance with the invention.

[5] = Uptake of caffeine into blood (serum) of pregnant sows
Method: Blood samples were collected pre-administration and at multiple time points post administration through an ear-vein catheter such that the uptake of caffeine into the blood (serum) could be modelled. Besides the caffeine level, the levels of its main metabolites paraxanthine, theophylline, and theobromine were determined.
This pool was not modelled.

[6] = tested on: sows; assay: Caffeine suppository to sows after birth of first piglet; indices of piglet health and birth interval; type: in vivo, swine
From the text: In commercial swine production, typically 8% of the fetuses are stillborn, and 12% of the newborn piglets die prior to weaning (SIVA, 2005). Oxygen deprivation during the birth process is an important causal factor for both stillbirths and neonatal mortality. An indicator for oxygen deprivation is umbilical (blood) pH. This pH is typically 7.4, but upon oxygen deprivation CO2 accumulates in the blood and tissues resulting in a drop in pH. If this drop is severe enough, it will result in the death of the fetus. A moderate drop in pH may not be lethal but may inflict sufficient metabolic damage such that it affects the health and fitness of the newborn and thus its chances of survival. Measurements of umbilical (blood) pH confirmed that this pH drops as the length of parturition increases. Previous work by Randall (1971) has shown a good correlation between umbilical pH and livability of piglets (FIG. 1).
Infrared radiation temperature is another indicator of metabolic health of a mammal. A strong correlation between infrared temperature and survival chances for newborn pigs has been shown. This infrared temperature was obtained by collecting piglets at birth, immediately drying them, and measuring infrared temperature. In a first experiment, 7 sows received a caffeine-comprising suppository (1-2 mg/kg BW, or 400-600 mg) after the birth of the first piglet in a litter. The indices of piglet health as described here above were compared to those of a control group of 6 sows. […] (P=0.04).

[7] = tested on: sows; details: intravenous injection of 0.5 mg/50 kg bodyweight, cited from earlier work

| SMILES | difference in stillbirths between treatment groups ([1]; 900 mg oral paste vs no treatment) | assistance rate ([1]; 900 mg oral paste, control group 26%) [%] | sows requiring medical care post-farrowing ([1]; 900 mg oral paste, control group seven sows (one died)) | increase in feed consumption of sows ([1]; first day post farrowing) [%] | increase in feed consumption of sows ([1]; first five days post farrowing) [%] | piglets heavier than controls at weaning ([1]; piglets from treated sows) [%] | mean time interval between the birth of the first and 10th piglet [2] [min] | caffeine concentration in milk relative to the concentration in the mother [3] | caffeine concentration in piglets at birth relative to the concentration in the mother [3] | stillborn piglets per litter ([4]; expected to farrow in next 8 hours, control 0.89) [piglets per litter] | piglets died or euthanized for being weak after parturition ([4]; control 1.15) [piglets per litter] | half-life ([5]; female, pig, in vivo) [h] | peak blood concentration, second compartment ([5]; pregnant sows, 940 mg of caffeine administered (half that for the 470 mg dose)) [µM] | time of peak blood concentration, second compartment ([5]; pregnant sows, post administration) [h] | bio-availability ([5]; pregnant sows, assuming caffeine distributed in 60% of body mass) [%] | increase of piglet umbilical (blood) pH ([6]; suppository 1-2 mg/kg BW (400-600 mg) vs control sows, P=0.03) [units] | increase of piglet infrared radiation temperature ([6]; suppository 1-2 mg/kg BW (400-600 mg) vs control sows, P=0.04) [°C] | numerical increase of birth interval between subsequent piglets ([6]; suppository, P=0.11 (control 9 minutes, P<0.01)) | stillbirth rate ([7]; reduced from 8.3) [%] | rate of deliveries lasting more than six hours ([7]; reduced from 14.5) [%] |
| --- | --- | --- | --- | --- | --- | --- | --- | --- | --- | --- | --- | --- | --- | --- | --- | --- | --- | --- | --- | --- |
| Cn1c(=O)c2c(ncn2C)n(C)c1=O [caffeine] | no statistically significant differences | 18 | no sows required medical care | 14 | 10 | 9 | 110 | roughly ⅙ | roughly ¼ | 0.31 | 0.48 | ~22 | ~5 | 8 | 44 | 0.044±0.020 | 0.60±0.29 | 3.6 minutes for each hour into parturition |  |  |
| CC(C)NCC(O)COc1cccc2[nH]c3ccccc3c12 (centres unmarked) [carazolol] |  |  |  |  |  |  |  |  |  |  |  |  |  |  |  |  |  |  | 7.1 | 11.0 |
